Consider 37 compounds from ChEMBL document CHEMBL1149456, “Substituted 4-hydroxyphenyl sulfonamides as pathway-selective estrogen receptor ligands” (Bioorg Med Chem Lett, 2006).

Assay [1] concerns the target T1, Estrogen receptor (Homo sapiens, UniProt P03372).
T1 sequence (P03372 whole entry): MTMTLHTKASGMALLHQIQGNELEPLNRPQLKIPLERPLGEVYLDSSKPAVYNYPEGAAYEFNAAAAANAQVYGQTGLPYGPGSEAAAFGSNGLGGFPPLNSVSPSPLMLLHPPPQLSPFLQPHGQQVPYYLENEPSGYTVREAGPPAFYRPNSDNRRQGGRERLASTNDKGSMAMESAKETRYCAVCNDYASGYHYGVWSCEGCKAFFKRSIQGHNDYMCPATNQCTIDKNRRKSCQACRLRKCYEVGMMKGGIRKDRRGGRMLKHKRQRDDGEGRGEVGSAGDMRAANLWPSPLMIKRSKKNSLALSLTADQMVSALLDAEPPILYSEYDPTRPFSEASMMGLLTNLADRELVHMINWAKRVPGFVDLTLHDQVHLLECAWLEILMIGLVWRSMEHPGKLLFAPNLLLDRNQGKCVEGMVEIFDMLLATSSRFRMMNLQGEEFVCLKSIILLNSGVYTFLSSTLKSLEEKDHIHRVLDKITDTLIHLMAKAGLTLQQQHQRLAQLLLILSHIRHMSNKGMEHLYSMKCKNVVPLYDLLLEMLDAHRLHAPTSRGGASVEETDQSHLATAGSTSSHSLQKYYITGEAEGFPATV
Kind of assay: Inhibition of binding to ER in Ad5-wt-ER-infected HAECT1 cells by NF-kappaB-mediated luciferase reporter. Type of assay: functional, cell-based.

The target in assay [2] is T1, Estrogen receptor. Kind of assay: Effect on binding to ER in Ad5-wt-ER-infected HAECT1 cells by creatine kinase expression. Type of assay: functional, cell-based.

On to `CCN(c1ccccc1)S(=O)(=O)c1ccc(O)c(OC)c1`, for which the IC50 result at Estrogen receptor [1] (haect1) is given as “Not Active”.

Turning to `CCCN(c1c(C)cccc1C)S(=O)(=O)c1ccc(O)c(C)c1`, the EC50 at Estrogen receptor [2] (read-out: EC50) came to 75 nM. The IC50 on Estrogen receptor [1] (read-out: IC50) is 14 nM.

In the case of `O=S(=O)(Nc1ccccc1)c1ccc(O)cc1`, the IC50 entry at Estrogen receptor [1] (haect1) is listed as “Not Active”.

As for `CCN(c1ccc(OC)cc1)S(=O)(=O)c1ccc(O)cc1`, the half-inhibitory concentration (IC50) result at Estrogen receptor [1] (haect1) is “Not Active”.

Turning to `CCCN(c1ccccc1Br)S(=O)(=O)c1ccc(O)c(C)c1`, the concentration for a half-maximal effect (EC50) on Estrogen receptor [2] (read-out: EC50) worked out at 480 nM. Moreover, the concentration for half-maximal inhibition (IC50) at Estrogen receptor [1] (read-out: IC50) was found to be 40 nM.

Regarding `CCN(c1ccccc1Br)S(=O)(=O)c1ccc(O)cc1`, the half-maximal effective concentration (EC50) on Estrogen receptor [2] (read-out: EC50) stood at 378 nM. For the same compound, the 50% inhibitory concentration (IC50) at Estrogen receptor [1] (read-out: IC50) worked out at 90 nM.

Take `CCCN(c1c(CC)cccc1CC)S(=O)(=O)c1ccc(O)c(C)c1`: the concentration giving a half-maximal response (EC50) at Estrogen receptor [2] (read-out: EC50) is 213 nM. For the same compound, on Estrogen receptor [1] (read-out: IC50), the concentration for half-maximal inhibition (IC50) turned out to be 5 nM.

Regarding `CCN(c1cccc(OC)c1)S(=O)(=O)c1ccc(O)cc1`, on Estrogen receptor [2] (read-out: EC50), the 50% effective concentration (EC50) is 830 nM. Also, the IC50 at Estrogen receptor [1] (read-out: IC50) was found to be 1970 nM.

Take `CCCN(c1c(C)cccc1Cl)S(=O)(=O)c1ccc(O)c(C)c1`: at Estrogen receptor [2] (read-out: EC50), the EC50 worked out at 153 nM. Also, the half-maximal inhibitory concentration (IC50) at Estrogen receptor [1] (read-out: IC50) is 26 nM.

With `CCCN(c1c(Cl)cccc1Cl)S(=O)(=O)c1ccc(O)c(C)c1`, on Estrogen receptor [2] (read-out: EC50), the 50% effective concentration (EC50) came out at 378 nM. For the same compound, on Estrogen receptor [1] (read-out: IC50), the 50% inhibitory concentration (IC50) was 16 nM.

Consider `CCCN(c1ccccc1Br)S(=O)(=O)c1ccc(O)cc1`, for which, on Estrogen receptor [2] (read-out: EC50), the half-maximal effective concentration (EC50) is 151 nM. Besides, the 50% inhibitory concentration (IC50) on Estrogen receptor [1] (read-out: IC50) was 26 nM.

Take `CCN(c1ccccc1)S(=O)(=O)c1ccc(O)c(C)c1`: the 50% effective concentration (EC50) at Estrogen receptor [2] (read-out: EC50) is 2140 nM. In addition, the IC50 on Estrogen receptor [1] (read-out: IC50) was found to be 328 nM.

With `O=S(=O)(c1ccc(O)cc1)N(c1ccccc1)c1ccccc1`, the EC50 on Estrogen receptor [2] (read-out: EC50) is 1540 nM. For the same compound, on Estrogen receptor [1] (read-out: IC50), the 50% inhibitory concentration (IC50) was found to be 410 nM.

Turning to `CCN(c1ccc(O)cc1)S(=O)(=O)c1ccc(O)cc1`, the concentration giving a half-maximal response (EC50) on Estrogen receptor [2] (read-out: EC50) was found to be 1390 nM. Further, the IC50 on Estrogen receptor [1] (read-out: IC50) is 272 nM.

As for `CC(C)(C)CN(c1ccccc1)S(=O)(=O)c1ccc(O)cc1`, at Estrogen receptor [2] (read-out: EC50), the EC50 was above 2500 nM. The IC50 at Estrogen receptor [1] (read-out: IC50) came to 1370 nM.

Take `CCCN(c1ccccc1F)S(=O)(=O)c1ccc(O)cc1`: the EC50 on Estrogen receptor [2] (read-out: EC50) amounted to 161 nM. Also, the IC50 on Estrogen receptor [1] (read-out: IC50) was determined as 74 nM.

With `O=S(=O)(c1ccc(O)cc1)N1CCCc2ccccc21`, the 50% inhibitory concentration (IC50) result on Estrogen receptor [1] (haect1) is listed as “Not Active”.

Regarding `CCCCN(c1ccccc1)S(=O)(=O)c1ccc(O)cc1`, the EC50 on Estrogen receptor [2] (read-out: EC50) is 705 nM. At Estrogen receptor [1] (read-out: IC50), the IC50 was determined as 317 nM.

Consider `O=S(=O)(c1ccc(O)cc1)N(Cc1ccccc1)c1ccccc1`, for which the 50% effective concentration (EC50) at Estrogen receptor [2] (read-out: EC50) was 242 nM. Moreover, the half-inhibitory concentration (IC50) on Estrogen receptor [1] (read-out: IC50) amounted to 500 nM.

`CCCN(c1ccccc1Cl)S(=O)(=O)c1ccc(O)c(C)c1`: the concentration for a half-maximal effect (EC50) on Estrogen receptor [2] (read-out: EC50) was determined as 650 nM. Also, on Estrogen receptor [1] (read-out: IC50), the IC50 turned out to be 51 nM.

As to `CC1CCc2ccccc2N1S(=O)(=O)c1ccc(O)cc1` (stereo not drawn), the 50% effective concentration (EC50) at Estrogen receptor [2] (read-out: EC50) was above 1000 nM. Besides, at Estrogen receptor [1] (read-out: IC50), the IC50 came out at 479 nM.

Regarding `CCCN(c1ccccc1-c1ccccc1)S(=O)(=O)c1ccc(O)c(C)c1`, on Estrogen receptor [2] (read-out: EC50), the EC50 was above 2890 nM. Further, the IC50 at Estrogen receptor [1] (read-out: IC50) was 253 nM.

As to `CC(C)N(c1ccccc1)S(=O)(=O)c1ccc(O)cc1`, at Estrogen receptor [2] (read-out: EC50), the EC50 was 1990 nM. Moreover, on Estrogen receptor [1] (read-out: IC50), the IC50 was 871 nM.

Turning to `CCCN(c1ccccc1)S(=O)(=O)c1ccc(O)cc1`, the half-maximal effective concentration (EC50) at Estrogen receptor [2] (read-out: EC50) amounted to 1430 nM. Also, the 50% inhibitory concentration (IC50) on Estrogen receptor [1] (read-out: IC50) was determined as 303 nM.

In the case of `CCCN(c1ccccc1Cl)S(=O)(=O)c1ccc(O)cc1`, at Estrogen receptor [2] (read-out: EC50), the EC50 stood at 144 nM. Also, the half-inhibitory concentration (IC50) at Estrogen receptor [1] (read-out: IC50) amounted to 42 nM.

In the case of `CCCN(c1c(C)cccc1CC)S(=O)(=O)c1ccc(O)c(C)c1`, the EC50 at Estrogen receptor [2] (read-out: EC50) was determined as 12 nM. In addition, at Estrogen receptor [1] (read-out: IC50), the IC50 amounted to 7 nM.

`CCCN(c1ccccc1Br)S(=O)(=O)c1ccc(O)c(C(F)(F)F)c1`: at Estrogen receptor [2] (haect1), the concentration giving a half-maximal response (EC50) entry was “Not Active”. Also, the IC50 on Estrogen receptor [1] (read-out: IC50) amounted to 60 nM.

In the case of `O=S(=O)(c1ccc(O)cc1)N(CCO)c1ccccc1`, the IC50 entry at Estrogen receptor [1] (haect1) is given as “Not Active”.

With `O=S1(=O)c2ccc(O)cc2CCN1c1ccccc1Cl`, on Estrogen receptor [2] (haect1), the EC50 entry is “Not Active”. Further, at Estrogen receptor [1] (read-out: IC50), the IC50 was 892 nM.

On to `CCN(c1ccccc1)S(=O)(=O)c1ccc(O)cc1`, for which the half-maximal effective concentration (EC50) on Estrogen receptor [2] (read-out: EC50) turned out to be 1600 nM. In addition, the IC50 on Estrogen receptor [1] (read-out: IC50) was 404 nM.

As to `CCCN(c1ccccc1C)S(=O)(=O)c1ccc(O)c(C)c1`, the concentration for a half-maximal effect (EC50) at Estrogen receptor [2] (read-out: EC50) is 923 nM. In addition, the IC50 at Estrogen receptor [1] (read-out: IC50) worked out at 109 nM.

Turning to `CCCN(c1ccccc1C(F)(F)F)S(=O)(=O)c1ccc(O)cc1`, on Estrogen receptor [2] (read-out: EC50), the EC50 was 243 nM. Also, at Estrogen receptor [1] (read-out: IC50), the concentration for half-maximal inhibition (IC50) is 54 nM.

As to `O=S(=O)(c1ccc(O)cc1)N(c1ccccc1)C1CCCCC1`, the concentration giving a half-maximal response (EC50) on Estrogen receptor [2] (read-out: EC50) was 534 nM. In addition, the IC50 at Estrogen receptor [1] (read-out: IC50) worked out at 866 nM.

As to `CN(c1ccccc1)S(=O)(=O)c1ccc(O)cc1`, the concentration for half-maximal inhibition (IC50) result at Estrogen receptor [1] (haect1) is on record as “Not Active”.

Take `CCCN(c1c(C)cccc1Cl)S(=O)(=O)c1ccc(O)cc1`: the 50% effective concentration (EC50) on Estrogen receptor [2] (read-out: EC50) amounted to 63 nM. The half-maximal inhibitory concentration (IC50) on Estrogen receptor [1] (read-out: IC50) was 24 nM.

Turning to `CCN(c1ccccc1OC)S(=O)(=O)c1ccc(O)cc1`, the EC50 on Estrogen receptor [2] (read-out: EC50) was 2170 nM. For the same compound, at Estrogen receptor [1] (read-out: IC50), the concentration for half-maximal inhibition (IC50) came to 830 nM.

In the case of `C=CCN(c1ccccc1)S(=O)(=O)c1ccc(O)cc1`, the EC50 on Estrogen receptor [2] (read-out: EC50) came out at 599 nM. For the same compound, on Estrogen receptor [1] (read-out: IC50), the IC50 was 235 nM.
